According to paper PMC6225322, “Development of Kinase Inhibitors via Metal-Catalyzed C–H Arylation of 8-Alkyl-thiazolo[5,4-f]-quinazolin-9-ones Designed by Fragment-Growing Studies” (Molecules : A Journal of Synthetic Chemistry and Natural …, 2018):
pIC50: −log10 of the molar value.

Tests used:
DYRK1A = DYRK1A (Homo sapiens, UniProt Q13627); assay: DYRK1A in vitro kinase assay (Woodtide); assay type: biochemical
Description: (§1) Products of series 2a–j, 3a–c, 4a–f, 9a–i, and 10 were evaluated in five different in vitro kinase assays: CDK5/p25, CK1δ/ε (casein kinase 1), GSK-3α/β, DYRK1A (dual-specificity, tyrosine phosphorylation regulated kinase), and CLK1 [37, 38, 39].
(§2) Controls were performed with appropriate dilutions of dimethyl sulfoxide (DMSO).

CDK5/p25 = biological target: T1, CDK5/p25 (Homo sapiens, UniProt Q00535); assay: CDK5/p25 in vitro kinase assay (33P-ATP, histone H1); assay type: biochemical
T1 construct: made in house
T1 sequence (Q00535 whole entry): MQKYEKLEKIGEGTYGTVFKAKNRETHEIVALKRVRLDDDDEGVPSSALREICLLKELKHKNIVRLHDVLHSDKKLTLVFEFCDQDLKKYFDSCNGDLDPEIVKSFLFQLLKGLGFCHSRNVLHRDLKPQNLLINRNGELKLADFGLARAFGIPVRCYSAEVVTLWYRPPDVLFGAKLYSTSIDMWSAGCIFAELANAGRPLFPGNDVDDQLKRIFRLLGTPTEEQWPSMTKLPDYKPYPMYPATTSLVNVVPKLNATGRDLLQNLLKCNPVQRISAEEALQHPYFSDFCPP
T1 sequence (Q15078 99-307 partner limits assumed): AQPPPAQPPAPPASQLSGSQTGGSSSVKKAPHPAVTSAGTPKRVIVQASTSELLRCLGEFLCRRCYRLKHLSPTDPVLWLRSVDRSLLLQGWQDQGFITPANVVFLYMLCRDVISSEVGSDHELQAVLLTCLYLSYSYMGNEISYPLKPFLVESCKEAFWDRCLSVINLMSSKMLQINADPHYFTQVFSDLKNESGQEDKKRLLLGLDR
Description: CDK5/p25 (Human, recombinant) was prepared as previously described [37]. Its kinase activity was assayed in buffer A, with 1 mg of histone H1/mL, in the presence of 15 μM [γ-^33P] ATP (3000 Ci/mmol; 10 mCi/mL) in a final volume of 30 μL. After 30 min incubation at 30 °C, 25 μL aliquots of supernatant were spotted onto sheets of Whatman P81 phosphocellulose paper, and 20 s later, the filters were washed eight times (for at least 5 min each time) in a solution of 10 mL phosphoric acid/L of water. The wet filters were counted in the presence of 1 mL ACS (Amersham) scintillation fluid.

CLK1 = CLK1 (Homo sapiens, UniProt P49759); assay: CLK1 in vitro kinase assay (RS peptide); assay type: biochemical
Sequence of CLK1 (P49759 whole entry): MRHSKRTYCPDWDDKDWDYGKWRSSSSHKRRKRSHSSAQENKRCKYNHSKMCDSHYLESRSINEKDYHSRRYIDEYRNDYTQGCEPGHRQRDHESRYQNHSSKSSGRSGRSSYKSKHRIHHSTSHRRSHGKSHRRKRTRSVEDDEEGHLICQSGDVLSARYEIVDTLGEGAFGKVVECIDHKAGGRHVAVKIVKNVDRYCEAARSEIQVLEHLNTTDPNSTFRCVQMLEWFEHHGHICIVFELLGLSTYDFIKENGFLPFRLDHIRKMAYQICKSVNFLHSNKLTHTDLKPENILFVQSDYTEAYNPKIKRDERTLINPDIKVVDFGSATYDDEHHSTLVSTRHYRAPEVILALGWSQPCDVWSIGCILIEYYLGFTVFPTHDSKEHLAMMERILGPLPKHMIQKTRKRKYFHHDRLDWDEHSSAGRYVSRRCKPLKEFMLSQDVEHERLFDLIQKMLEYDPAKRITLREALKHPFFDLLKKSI

GSK-3α/β = GSK-3α/β in vitro kinase assay (GS-1 peptide); assay type: biochemical, porcine; conditions: Table 4; ATP 15 μM, triplicate; <50% inhibition at 10 μM = IC50 >10 μM
Description: as §1, §2
GSK-3α/β (porcine brain, native) was assayed, in buffer A, with 0.5 mg BSA/mL + 1 mM DTT, using GS-1 ([…]pEDEEE) (pS stands for phosphorylated serine), a GSK-3 specific substrate, in the presence of 15 μmol/L [γ-^33P] ATP (3000 Ci/mmol; 10 mCi/mL) in a final volume of 30 μL. After 30 min incubation at 30 °C, the reaction was stopped by harvesting onto P81 phosphocellulose […] (Whatman, Dutscher SAS, Brumath, France) using a FilterMate harvester (PerkinElmer, Courtaboeuf, France), and were washed in 1% phosphoric acid. Scintillation fluid was added, and the radioactivity measured in a Packard counter.

CK1δ/ε = CK1δ/ε in vitro kinase assay (CKS peptide); assay type: biochemical, porcine; conditions: Table 4; ATP 15 μM, triplicate; <50% inhibition at 10 μM = IC50 >10 μM
Description: as §1, §2
CK1δ/ε (porcine brain, native) was assayed as described for CDK1, but in buffer B, and using 25 μM CKS peptide ([…]pSAYSITA), a CK1-specific substrate.

| SMILES | pIC50 (DYRK1A) | pIC50 (CDK5/p25) | pIC50 (CLK1) | pIC50 (GSK-3α/β) | pIC50 (CK1δ/ε) | DYRK inhibitory activity (in words) (DYRK1A; SAR discussion) |
| --- | --- | --- | --- | --- | --- | --- |
| O=c1c2c(ccc3nc(-c4cccnc4)sc32)ncn1Cc1ccccc1 [3a] | 7.92 | < 5.00 | 5.70 | 5.43 | < 5.00 |  |
| O=c1c2c(ccc3nc(-c4cnccn4)sc32)ncn1Cc1ccccc1 [3b] | 6.88 | < 5.00 | 5.48 | 5.22 | < 5.00 |  |
| Cn1cnc2ccc3nc(-c4cccnc4)sc3c2c1=O [4a, 8-Methyl-2-(pyridin-3-yl)thiazolo[5,4-f]quinazolin-9(8H)-one] | < 5.00 |  | < 5.00 | < 5.00 | < 5.00 |  |
| CC(C)n1cnc2ccc3nc(-c4cccnc4)sc3c2c1=O [4b, 8-Isopropyl-2-(pyridin-3-yl)thiazolo[5,4-f]quinazolin-9(8H)-one] | < 5.00 |  | < 5.00 | < 5.00 | < 5.00 |  |
| O=c1c2c(ccc3nc(-c4cccnc4)sc32)ncn1C1CC1 [4c, 8-Cyclopropyl-2-(pyridin-3-yl)thiazolo[5,4-f]quinazolin-9(8H)-one] | 7.96 |  | 7.74 | 7.17 | 5.22 |  |
| O=c1c2c(ccc3nc(-c4cccnc4)sc32)ncn1C1CCC1 [4d, 8-Cyclobutyl-2-(pyridin-3-yl)thiazolo[5,4-f]quinazolin-9(8H)-one] | < 5.00 |  | < 5.00 | < 5.00 | < 5.00 |  |
| O=c1c2c(ccc3nc(-c4cccnc4)sc32)ncn1C1CCCC1 [4e, 8-Cyclopentyl-2-(pyridin-3-yl)thiazolo[5,4-f]quinazolin-9(8H)-one] | < 5.00 |  | < 5.00 | < 5.00 | < 5.00 |  |
| O=c1c2c(ccc3nc(-c4cccnc4)sc32)ncn1C1CCCCC1 [4f, 8-Cyclohexyl-2-(pyridin-3-yl)thiazolo[5,4-f]quinazolin-9(8H)-one] | < 5.00 |  | < 5.00 | < 5.00 | < 5.00 |  |
| COc1ccc2c(c1)[nH]c1c(C)nccc12 [Harmine, reference compound] |  |  |  | < 5.00 | 5.82 |  |
| COc1ncccc1-c1nc2ccc3ncn(C4CC4)c(=O)c3c2s1 [compound 10] | < 5.00 | < 5.00 | < 5.00 | ≤ 5.00 | < 5.00 | inactive |
